Reference: patent publication US12723063B2, “GIPR-agonist compounds” (Eli Lilly and Company, priority 2019, dated 2026)
*1 amine or outer side, *2 acyl side, *3 side chain or, on linkers, in order; H or OH if unused. Where a SMILES comes first, the peptide text is derived from it. Side-chain parts run from the residue outwards. [ ]: non-standard residue; d: D form. The star is where a group is joined. C20 diacid = O=C(O)CCCCCCCCCCCCCCCCCCC(=O)*; γGlu = O=C(O)[C@H](CCC(=O)[*:2])N[*:1]; 4Pal = N[C@@H](Cc1ccncc1)C(=O)O; αMeL = CC(C)C[C@](C)(N)C(=O)O; AEEA = NCCOCCOCC(=O)O; Aib = CC(C)(N)C(=O)O

Assays:
[1] = molecular target: T1, human GIPR (Homo sapiens, UniProt P48546); test: [125I]-GIP binding, SPA with WGA beads, 0.1% bacitracin; conditions: geometric mean, read-out: hGIPR Ki
T1 construct: expressed in transfected cells; crude membranes
T1 sequence (P48546 22-466): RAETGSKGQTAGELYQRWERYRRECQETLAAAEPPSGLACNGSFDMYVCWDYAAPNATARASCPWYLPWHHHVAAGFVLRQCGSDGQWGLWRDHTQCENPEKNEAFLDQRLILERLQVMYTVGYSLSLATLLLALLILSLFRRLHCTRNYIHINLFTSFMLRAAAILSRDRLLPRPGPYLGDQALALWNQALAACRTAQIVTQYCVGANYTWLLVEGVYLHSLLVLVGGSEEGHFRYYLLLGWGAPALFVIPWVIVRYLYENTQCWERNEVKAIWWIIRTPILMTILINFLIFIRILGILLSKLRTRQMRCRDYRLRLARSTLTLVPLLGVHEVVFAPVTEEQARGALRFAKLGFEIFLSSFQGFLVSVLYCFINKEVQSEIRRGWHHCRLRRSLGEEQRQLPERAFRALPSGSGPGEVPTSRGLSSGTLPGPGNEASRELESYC
Outline: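 Ki values are geometric means (SEM, n independent days), derived from four-parameter nonlinear regression of IC50. Membranes came from hGIPR-expressing CHO cells.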

[2] = molecular target: T2, human GLP-1R (Homo sapiens, UniProt P43220); test: [125I]-GLP-1 binding, SPA with WGA beads, 0.1% bacitracin; conditions: geometric mean, read-out: hGLP1R Ki
T2 construct: expressed in transfected cells; crude membranes
Outline: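 Binding buffer was 25 mM HEPES pH 7.4 with 2.5 mM CaCl2, 1 mM MgCl2, 0.1% (w/v) bacitracin, 0.003% Tween-20 and EDTA-free protease inhibitors. Four-parameter regression gave IC50, converted to Ki (geometric mean, SEM, n independent days).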

T2 sequence (P43220 24-463): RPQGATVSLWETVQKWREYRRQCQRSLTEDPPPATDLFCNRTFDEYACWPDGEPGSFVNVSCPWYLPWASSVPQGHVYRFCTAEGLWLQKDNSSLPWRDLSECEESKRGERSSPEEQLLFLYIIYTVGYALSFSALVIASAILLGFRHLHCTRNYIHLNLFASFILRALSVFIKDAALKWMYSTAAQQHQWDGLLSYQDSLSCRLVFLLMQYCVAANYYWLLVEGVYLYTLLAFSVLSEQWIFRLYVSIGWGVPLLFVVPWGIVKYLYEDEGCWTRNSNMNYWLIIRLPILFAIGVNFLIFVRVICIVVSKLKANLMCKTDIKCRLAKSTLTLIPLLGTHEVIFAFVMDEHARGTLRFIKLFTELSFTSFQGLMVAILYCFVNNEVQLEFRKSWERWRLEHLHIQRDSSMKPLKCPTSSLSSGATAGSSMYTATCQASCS

Row | SMILES | Ki [1] [nM] | Ki [2] [nM]
1 | CC[C@H](C)[C@H](NC(=O)[C@H](Cc1ccccc1)NC(=O)[C@@H](NC(=O)CNC(=O)[C@H](CCC(=O)O)NC(=O)C(C)(C)NC(=O)[C@@H](N)Cc1ccc(O)cc1)[C@@H](C)O)C(=O)N[C@@H](CO)C(=O)N[C@@H](CC(=O)O)C(=O)N[C@@H](Cc1ccc(O)cc1)C(=O)N[C@@H](CO)C(=O)N[C@H](C(=O)N[C@@](C)(CC(C)C)C(=O)N[C@@H](CC(C)C)C(=O)N[C@@H](CC(=O)O)C(=O)N[C@@H](CCCCN)C(=O)N[C@@H](CCCCNC(=O)COCCOCCNC(=O)COCCOCCNC(=O)CC[C@H](NC(=O)CCCCCCCCCCCCCCCCCCC(=O)O)C(=O)O)C(=O)N[C@@H](Cc1c[nH]cn1)C(=O)N[C@@H](CCC(N)=O)C(=O)NC(C)(C)C(=O)N[C@@H](CC(=O)O)C(=O)N[C@@H](Cc1ccccc1)C(=O)N[C@H](C(=O)N[C@@H](CCC(=O)O)C(=O)N[C@@H](Cc1ccncc1)C(=O)N[C@@H](CC(C)C)C(=O)N[C@@H](CC(C)C)C(=O)N[C@@H](C)C(=O)NCC(=O)NCC(=O)N1CCC[C@H]1C(=O)N[C@@H](CO)C(=O)N[C@@H](CO)C(=O)NCC(=O)N[C@@H](C)C(=O)N1CCC[C@H]1C(=O)N1CCC[C@H]1C(=O)N1CCC[C@H]1C(=O)N[C@@H](CO)C(N)=O)C(C)C)[C@@H](C)CC [Example 48] | 0.0498 | 211
2 | CC[C@H](C)[C@H](NC(=O)[C@H](Cc1ccccc1)NC(=O)[C@@H](NC(=O)CNC(=O)[C@H](CCC(=O)O)NC(=O)C(C)(C)NC(=O)[C@@H](N)Cc1ccc(O)cc1)[C@@H](C)O)C(=O)N[C@@H](CO)C(=O)N[C@@H](CC(=O)O)C(=O)N[C@@H](Cc1ccc(O)cc1)C(=O)N[C@@H](CO)C(=O)N[C@H](C(=O)N[C@@](C)(CC(C)C)C(=O)N[C@@H](CC(C)C)C(=O)N[C@@H](CC(=O)O)C(=O)N[C@@H](CCCCN)C(=O)N[C@@H](CCCCNC(=O)COCCOCCNC(=O)COCCOCCNC(=O)CC[C@H](NC(=O)CCCCCCCCCCCCCCCCCCC(=O)O)C(=O)O)C(=O)N[C@@H](Cc1c[nH]cn1)C(=O)N[C@@H](CCC(N)=O)C(=O)NC(C)(C)C(=O)N[C@@H](CC(=O)O)C(=O)N[C@@H](Cc1ccccc1)C(=O)N[C@H](C(=O)N[C@@H](CCC(=O)O)C(=O)N[C@@H](Cc1c[nH]c2ccccc12)C(=O)N[C@@H](CC(C)C)C(=O)N[C@@H](CC(C)C)C(=O)N[C@@H](CCC(=O)O)C(=O)N[C@H](C(=O)NCC(=O)N1CCC[C@H]1C(=O)N[C@@H](CO)C(=O)N[C@@H](CO)C(=O)NCC(=O)N[C@@H](C)C(=O)N1CCC[C@H]1C(=O)N1CCC[C@H]1C(=O)N1CCC[C@H]1C(=O)N[C@@H](CO)C(N)=O)[C@@H](C)O)C(C)C)[C@@H](C)CC [Example 71] (H-Y[Aib]EGTFISDYSI[αMeL]LDKK([AEEA-AEEA-γGlu-C20 diacid])HQ[Aib]DFVEWLLETGPSSGAPPPS-NH2) | 0.0422 | 347
3 | CC[C@H](C)[C@H](NC(=O)[C@H](Cc1ccccc1)NC(=O)[C@@H](NC(=O)CNC(=O)[C@H](CCC(=O)O)NC(=O)C(C)(C)NC(=O)[C@@H](N)Cc1ccc(O)cc1)[C@@H](C)O)C(=O)N[C@@H](CO)C(=O)N[C@@H](CC(=O)O)C(=O)N[C@@H](Cc1ccc(O)cc1)C(=O)N[C@@H](CO)C(=O)N[C@H](C(=O)N[C@@](C)(CC(C)C)C(=O)N[C@@H](CC(C)C)C(=O)N[C@@H](CC(=O)O)C(=O)N[C@@H](CCCCN)C(=O)N[C@@H](CCCCNC(=O)COCCOCCNC(=O)COCCOCCNC(=O)CC[C@H](NC(=O)CCCCCCCCCCCCCCCCCCC(=O)O)C(=O)O)C(=O)N[C@@H](Cc1c[nH]cn1)C(=O)N[C@@H](CCC(N)=O)C(=O)NC(C)(C)C(=O)N[C@@H](CCC(=O)O)C(=O)N[C@@H](Cc1ccccc1)C(=O)N[C@H](C(=O)N[C@@H](CCC(=O)O)C(=O)N[C@@H](Cc1ccc(O)cc1)C(=O)N[C@@H](CC(C)C)C(=O)N[C@@H](CC(C)C)C(=O)N[C@@H](CCC(=O)O)C(=O)N[C@@H](C)C(=O)NCC(=O)N1CCC[C@H]1C(=O)N[C@@H](CO)C(=O)N[C@@H](CO)C(=O)NCC(=O)N[C@@H](C)C(=O)N1CCC[C@H]1C(=O)N1CCC[C@H]1C(=O)N1CCC[C@H]1C(=O)N[C@@H](CO)C(N)=O)C(C)C)[C@@H](C)CC [Example 65] (H-Y[Aib]EGTFISDYSI[αMeL]LDKK([AEEA-AEEA-γGlu-C20 diacid])HQ[Aib]EFVEYLLEAGPSSGAPPPS-NH2) | 0.0316 | 305
4 | CC[C@H](C)[C@H](NC(=O)[C@H](Cc1ccccc1)NC(=O)[C@@H](NC(=O)CNC(=O)[C@H](CCC(=O)O)NC(=O)C(C)(C)NC(=O)[C@@H](N)Cc1ccc(O)cc1)[C@@H](C)O)C(=O)N[C@@H](CO)C(=O)N[C@@H](CC(=O)O)C(=O)N[C@@H](Cc1ccc(O)cc1)C(=O)N[C@@H](CO)C(=O)N[C@H](C(=O)N[C@@](C)(CC(C)C)C(=O)N[C@@H](CC(C)C)C(=O)N[C@@H](CC(=O)O)C(=O)N[C@@H](CCCCN)C(=O)N[C@@H](CCCCNC(=O)COCCOCCNC(=O)COCCOCCNC(=O)CC[C@H](NC(=O)CCCCCCCCCCCCCCCCCCC(=O)O)C(=O)O)C(=O)N[C@@H](Cc1c[nH]cn1)C(=O)N[C@@H](CCC(N)=O)C(=O)NC(C)(C)C(=O)N[C@@H](CCC(=O)O)C(=O)N[C@@H](Cc1ccccc1)C(=O)N[C@H](C(=O)N[C@@H](CCC(=O)O)C(=O)N[C@@H](Cc1ccncc1)C(=O)N[C@@H](CC(C)C)C(=O)N[C@@H](CC(C)C)C(=O)N[C@@H](C)C(=O)N[C@@H](C)C(=O)NCC(=O)N1CCC[C@H]1C(=O)N[C@@H](CO)C(=O)N[C@@H](CO)C(=O)NCC(=O)N[C@@H](C)C(=O)N1CCC[C@H]1C(=O)N1CCC[C@H]1C(=O)N1CCC[C@H]1C(=O)N[C@@H](CO)C(N)=O)C(C)C)[C@@H](C)CC [Example 59] | 0.0148 | 109
5 | CC[C@H](C)[C@H](NC(=O)[C@H](Cc1ccccc1)NC(=O)[C@@H](NC(=O)CNC(=O)[C@H](CCC(=O)O)NC(=O)C(C)(C)NC(=O)[C@@H](N)Cc1ccc(O)cc1)[C@@H](C)O)C(=O)N[C@@H](CO)C(=O)N[C@@H](CC(=O)O)C(=O)N[C@@H](Cc1ccc(O)cc1)C(=O)N[C@@H](CO)C(=O)N[C@H](C(=O)N[C@@](C)(CC(C)C)C(=O)N[C@@H](CC(C)C)C(=O)N[C@@H](CC(=O)O)C(=O)N[C@@H](CCCCN)C(=O)N[C@@H](CCCCNC(=O)COCCOCCNC(=O)COCCOCCNC(=O)CC[C@H](NC(=O)CCCCCCCCCCCCCCCCCCC(=O)O)C(=O)O)C(=O)N[C@@H](Cc1c[nH]cn1)C(=O)N[C@@H](CCC(N)=O)C(=O)NC(C)(C)C(=O)N[C@@H](CC(=O)O)C(=O)N[C@@H](Cc1ccccc1)C(=O)N[C@H](C(=O)N[C@@H](CCC(=O)O)C(=O)N[C@@H](Cc1ccc(O)cc1)C(=O)N[C@@H](CC(C)C)C(=O)N[C@@H](CC(C)C)C(=O)N[C@@H](C)C(=O)NCC(=O)NCC(=O)N1CCC[C@H]1C(=O)N[C@@H](CO)C(=O)N[C@@H](CO)C(=O)NCC(=O)N[C@@H](C)C(=O)N1CCC[C@H]1C(=O)N1CCC[C@H]1C(=O)N1CCC[C@H]1C(=O)N[C@@H](CO)C(N)=O)C(C)C)[C@@H](C)CC [Example 53] (H-Y[Aib]EGTFISDYSI[αMeL]LDKK([AEEA-AEEA-γGlu-C20 diacid])HQ[Aib]DFVEYLLAGGPSSGAPPPS-NH2) | 0.0184 | 62.9
6 | CC[C@H](C)[C@H](NC(=O)[C@H](Cc1ccccc1)NC(=O)[C@@H](NC(=O)CNC(=O)[C@H](CCC(=O)O)NC(=O)C(C)(C)NC(=O)[C@@H](N)Cc1ccc(O)cc1)[C@@H](C)O)C(=O)N[C@@H](CO)C(=O)N[C@@H](CC(=O)O)C(=O)N[C@@H](Cc1ccc(O)cc1)C(=O)N[C@@H](CO)C(=O)N[C@H](C(=O)N[C@@](C)(CC(C)C)C(=O)N[C@@H](CC(C)C)C(=O)N[C@@H](CC(=O)O)C(=O)N[C@@H](CCCCN)C(=O)N[C@@H](CCCCNC(=O)COCCOCCNC(=O)COCCOCCNC(=O)CC[C@H](NC(=O)CCCCCCCCCCCCCCCCCCC(=O)O)C(=O)O)C(=O)N[C@@H](Cc1c[nH]cn1)C(=O)N[C@@H](CCC(N)=O)C(=O)NC(C)(C)C(=O)N[C@@H](CC(=O)O)C(=O)N[C@@H](Cc1ccccc1)C(=O)N[C@H](C(=O)N[C@@H](CCC(=O)O)C(=O)N[C@@H](Cc1ccncc1)C(=O)N[C@@H](CC(C)C)C(=O)N[C@@H](CC(C)C)C(=O)N[C@@H](C)C(=O)N[C@H](C(=O)NCC(=O)N1CCC[C@H]1C(=O)N[C@@H](CO)C(=O)N[C@@H](CO)C(=O)NCC(=O)N[C@@H](C)C(=O)N1CCC[C@H]1C(=O)N1CCC[C@H]1C(=O)N1CCC[C@H]1C(=O)N[C@@H](CO)C(N)=O)[C@@H](C)O)C(C)C)[C@@H](C)CC [Example 70] (H-Y[Aib]EGTFISDYSI[αMeL]LDKK([AEEA-AEEA-γGlu-C20 diacid])HQ[Aib]DFVE[4Pal]LLATGPSSGAPPPS-NH2) | 0.0421 | 570
